From patent publication US20190255073A1, “ESTERS OF 3-POLYAMINE DERIVATIVES OF BILE ACIDS FOR THE TREATMENT OF INFECTIONS” (VIRBAC, priority 2016, published 2019) come the findings set out here.

For one assay, the system named is CHO-K1 cells. Description: WST1 cytotoxicity test on CHO-K1 cells. Type of assay: cell-based, Chinese hamster. The conditions noted are these: Cricetulus griseus, CHO-K1, read-out: IC50 (μg/mL) CHO. The essentials: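 Viability read-out: WST-1 tetrazolium cleavage by mitochondrial dehydrogenases, 20 min at 37 °C, A450. Compounds added at rising concentrations, in duplicate, to CHO-K1 cells for 24 h (37 °C, 5% CO2). IC50, the concentration halving viability, fitted by nonlinear regression.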

In the next assay the test system is S. aureus ATCC25923. The experiment in a line: MIC determination by microplate dilution, S. aureus human strain. Type of assay: cell-based, Staphylococcus aureus. The conditions noted are these: Staphylococcus aureus, ATCC25923, Gram-positive, Mueller-Hinton medium, 24 h, 37° C. Put shortly: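 Strains precultured in Mueller-Hinton broth 24 h at 37 °C; compounds from 5 mg/mL stocks in DMSO/methanol 50/50, twofold serial dilution in 96-well plates, inoculum set to OD 0.01. Incubated 24 h at 37 °C, humid; OD read at 620 nm to derive MIC, duplicates.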

Each structure is given as a SMILES string. ≈ marks a conversion by molar mass, not a printed value.

As to `CC(C)OC(=O)CC[C@@H](C)[C@H]1CCC2C3C(CC[C@@]21C)[C@@]1(C)CC[C@H](NCCCN(CCCN)CCCN)CC1C[C@H]3O` (stereo partly drawn) [(39), isopropyl 3β-(tris(3-aminopropyl)amine)chenodeoxycholate], the IC50 in the assay on CHO-K1 cells came to 110 µg/mL (≈ 182 µM). The molecule also displayed an MIC in the assay with S. aureus ATCC25923 of 7 µg/mL (≈ 11.6 µM).
